According to patent publication US9907837B2, “Composition for preventing or treating cachexia” (GemVax & KAEL Co., Ltd., priority 2012, dated 2018):

Tested on: TNF-α
Experiment: TNF-α ELISA with culture of LPS-stimulated PBMC-derived monocytes
Assay type: cell-based, human
Conditions: monocytes stimulated with LPS 10 ng/ml 2 hrs, starved 1 hr, 4 uM treated for 2 hrs, cell culture medium
Procedure: PBMC (peripheral blood mononuclear cell) was separated from the blood samples (50 ml) collected from healthy subjects using Ficoll-Paque™ PLUS (GE Healthcare Life Sciences, Piscataway, N.J., USA). PBMCs were then enriched in complete RPMI 1640 medium containing 20% of human serum, followed by transferring to 100 mm polystyrene cell culture plate coated with human serum for 30 mins. […]
To investigate the effect of PEP-1 on TNF-α level in terms of protein expression level, ELISA (enzyme linked immunosorbent assay) was performed. […] After culturing, cell soup was collected, and the amount of TNF-α was measured using ELISA kit (R&D, Minneapolis, Minn., USA) as follows.
TNF measurement uses sandwich ELISA method. […] Again, plate was washed, and avidin/biotin was added for measuring the absorbance. TNF-α level of each sample was quantified using the standard graph calculated from the absorbance of standard solution.
PBMC-derived monocytes were stimulated with endotoxin LPS (10 ng/ml) for 2 hrs, starved for 1 hr using OPTI-MEM, and then 4 uM of FITC, FITC-TAT, PEP 1-FITC and FITC-PEP 1 were treated for 2 hrs. After incubation, TNF-α level was measured with cell culture medium using ELISA.

For Fluorescein Isothiocyanate [FITC], the TNF-α level was 6.2 ng/mL.
